According to publication PMC8400394, “Adsorption of Recombinant Human β-Defensin 2 and Two Mutants on Mesoporous Silica Nanoparticles and Its Effect against Clavibacter michiganensis subsp. michiganensis” (Nanomaterials, 2021):

Legend:
Assay type in all cases: cell-based, Clavibacter michiganensis subsp. michiganensis
Cmm [1] = assay: Antimicrobial activity of AMPs by the plaque diffusion method; conditions: plaque diffusion on MHB agar with Cmm; 5, 10 and 15 μL of 50 μM; CH3COOH 10 mM pH 2.4 and Tris 50 mM pH 8.4; 24 h, 28 °C; triplicate
Procedure: (§1) Cmm was cultivated in Mueller-Hinton broth (MHB) at […] for 16 h at 180 rpm. Employing 0.5 mL of the previous culture, 50 mL of fresh MHB were inoculated. The culture was maintained under the conditions mentioned above until the OD600 reached 0.2–0.3. 9.5 mL of MHB agar prewarmed to 37 °C were added to 0.5 mL of the culture. It was homogenized and then poured onto a Petri dish containing MHB agar to form a uniform layer of 2 mm. Once the surface was dry, different volumes (5, 10 and 15 μL) of the defensins under study (50 μM) were added to the surface. The plates were incubated for 24 h at 28 °C, then the formed inhibition halos were measured. CH3COOH (acid acetic)10 mM pH 2.4 and Tris 50 mM pH 8.4 were used both as negative controls. The IC50 was determined based on that reported by Tay and Liu. This measurement was defined as the minimum concentration of AMP that is required to inhibit 50% of the growth of Cmm.

Cmm [2] = assay: Determination of IC50 of the recombinant AMPs; conditions: Cmm in MHB, minimum concentration of AMP that inhibits 50% of the growth
Procedure: as §1

Cmm [3] = assay: Antimicrobial activity of MSN/AMPs complexes in solid medium; conditions: plaque diffusion on MHB with Cmm; 5, 10, 15 µL; 24 h, 28 °C; MSN 5 mg/mL, AMPs 0.5 mg/mL; triplicate
Procedure: The antimicrobial activity of the MSN/AMPs complexes was evaluated both in solid and liquid media. For the solid medium, the adsorption process was carried out as described in the previous section. The pellet was resuspended in PBS (1 mL). Afterwards, different volumes of the MSN/AMPs mixture were deposited onto Petri dishes with MHB medium and Cmm (see antimicrobial activity test section and IC50 determination). The plates were incubated for 24 h at 28 °C, the diameter of the inhibition halos was measured. MSN (5 mg/mL) and AMPs (0.5 mg/mL) were employed as controls. These experiments were performed by triplicates.

Cmm [4] = assay: Effect of pepsin on AMPs and MSN/AMPs complexes (growth of Cmm after protease treatment); conditions: AMPs (1 mg/mL) treated with pepsin (1 mg/mL), 5:1 peptide:enzyme; then Cmm culture 28 °C, 24 h; CFU count; duplicate
Procedure: After removing the supernatant and drying the MSN/AMP complexes, 200 µL of the pepsin (1 mg/mL) were added and incubated at 37 °C for 16 h under constant shaking. The microtubes were then centrifuged at 5000× g for 10 min at 4 °C. The resulting pellet was washed twice with deionized water and centrifuged at 5000× g for 10 min at 4 °C between each wash. MSN/AMPs complexes were resuspended in 3 mL of diluted Cmm culture and incubated at 28 °C for 24 h at 180 rpm. After the incubation period, serial dilutions were performed up to 1 × 10^6 of which 100 µL were taken and Petri dishes were poured with 30 mL MHB medium. The plates were incubated at 28 °C for 72 h and the colonies were counted, bacterial growth was expressed as CFU/mL. Controls were prepared with MSN (5 mg/mL) in PBS and AMPs (1 mg/mL) treated with protease (1 mg/mL) in a 5:1 ratio (peptide:enzyme). The experiments for this assay were performed by duplicate.

Substance: human β-defensin-2 [hβD2]
- antimicrobial activity (inhibition halos) (Cmm [1]): exhibited inhibition halos
- IC50 (Cmm [2]; AMP in CH3COOH 10 mM pH 2.4): 3.64 ± 0.33 µg/mL
- IC50 (Cmm [2]; AMP in Tris 50 mM pH 8.4): 3.61 ± 0.47 µg/mL
- antimicrobial activity in solid medium (inhibition halos) (Cmm [3]): greater inhibition than MNS/hβD2
- Cmm growth inhibition after pepsin treatment, AMPs without the mesoporous matrix (Cmm [4]): 99.98%
